In ChEMBL document CHEMBL1126161, “3,4-Dihydroquinolin-2(1H)-ones as combined inhibitors of thromboxane A2 synthase and cAMP phosphodiesterase” (J Med Chem, 1992):

Assays:
[1] = system: Rattus norvegicus; experiment: Antihypertensive activity in conscious spontaneously hypertensive rat (SHR), percent change in heart rate (beats/min) after 2 hr at 3 mg/kg peroral dose; format: functional; details: route oral
[2] = system: Mus musculus; experiment: Protection against mortality in pulmonary thromboembolism model in mice at 9 mg/kg; format: functional
[3] = system: Mus musculus; experiment: Protection against mortality in pulmonary thromboembolism model in mice at 3 mg/kg; format: functional
[4] = system: Rattus norvegicus; experiment: Antihypertensive activity in conscious spontaneously hypertensive rat (SHR), percent change in heart rate (beats/min) after 1 hr at 0.3 mg/kg peroral dose; format: functional; details: route oral
[5] = system: Rattus norvegicus; experiment: Antihypertensive activity in conscious spontaneously hypertensive rat (SHR), percent change in Systolic blood pressure (SBP) at 0.3 mg/kg peroral dose after 12 hr; format: functional; details: route oral
[6] = system: Rattus norvegicus; experiment: (§1) Antihypertensive activity in conscious spontaneously hypertensive rat (SHR), percent change in Systolic blood pressure (SBP) at 3 mg/kg peroral dose after 2 hr; format: functional; details: route oral
[7] = system: Rattus norvegicus; experiment: (§2) Antihypertensive activity in conscious spontaneously hypertensive rat (SHR), percent change in Systolic blood pressure (SBP) at 0.3 mg/kg peroral dose after 4 hr; format: functional; details: route oral
[8] = target: Phosphodiesterase 3 (Homo sapiens, UniProt Q14432+Q13370); experiment: Inhibition of human blood platelet c-AMP phosphodiesterase
[9] = system: Rattus norvegicus; experiment: Ex vivo inhibition of blood platelet aggregation in rats at 50 mg/kg peroral dose after 3 hr; format: functional; details: route oral
[10] = system: Mus musculus; experiment: Time course of protection against mortality in a pulmonary thromboembolism model in mice after -3 hr at 10 mg/kg; format: functional
[11] = system: Rattus norvegicus; experiment: Antihypertensive activity in conscious spontaneously hypertensive rat (SHR), percent change in heart rate (beats/min) after 12 hr at 10 mg/kg peroral dose; format: functional; details: route oral
[12] = system: Rattus norvegicus; experiment: Antihypertensive activity in conscious spontaneously hypertensive rat (SHR), percent change in Systolic blood pressure (SBP) at 1 mg/kg peroral dose after 2 hr; format: functional; details: route oral
[13] = system: Rattus norvegicus; experiment: Antihypertensive activity in conscious spontaneously hypertensive rat (SHR), percent change in heart rate (beats/min) after 8 hr at 3 mg/kg peroral dose; format: functional; details: route oral
[14] = system: Rattus norvegicus; experiment: as §1; format: functional; details: route oral; remark: listed apart in the source
[15] = system: Rattus norvegicus; experiment: Antihypertensive activity in conscious spontaneously hypertensive rat (SHR), percent change in Systolic blood pressure (SBP) at 1 mg/kg peroral dose after 8 hr; format: functional; details: route oral
[16] = system: Mus musculus; experiment: Protection against mortality in pulmonary thromboembolism model in mice at 30 mg/kg; format: functional
[17] = species: Homo sapiens; experiment: Inhibition of [14C]arachidonic acid induced platelet aggregation at 50 uM (Control 6-keto-PGF1-alpha = 1.45+/-0.6); format: functional
[18] = species: Homo sapiens; experiment: Ratio of IC50(w/oPAM)/IC50(w/PAM); format: functional
[19] = system: Rattus norvegicus; experiment: Ex vivo inhibition of blood platelet aggregation in rats at 50 mg/kg peroral dose 8 hr; format: functional; details: route oral
[20] = system: Rattus norvegicus; experiment: Antihypertensive activity in conscious spontaneously hypertensive rat (SHR), percent change in heart rate (beats/min) after 4 hr at 10 mg/kg peroral dose; format: functional; details: route oral
[21] = system: Rattus norvegicus; experiment: as §2; format: functional; details: route oral; remark: listed apart in the source
[22] = system: Mus musculus; experiment: Protection against mortality in pulmonary thromboembolism model in mice at 10 mg/kg; format: functional
[23] = system: Rattus norvegicus; experiment: Antihypertensive activity in conscious spontaneously hypertensive rat (SHR), percent change in Systolic blood pressure (SBP) at 1 mg/kg peroral dose after 1 hr; format: functional; details: route oral
[24] = system: Rattus norvegicus; experiment: Antihypertensive activity in conscious spontaneously hypertensive rat (SHR), percent change in Systolic blood pressure (SBP) at 0.3 mg/kg peroral dose after 8 hr; format: functional; details: route oral
[25] = system: Rattus norvegicus; experiment: Antihypertensive activity in conscious spontaneously hypertensive rat (SHR), percent change in heart rate (beats/min) after 12 hr at 1 mg/kg peroral dose; format: functional; details: route oral
[26] = system: Rattus norvegicus; experiment: Antihypertensive activity in conscious spontaneously hypertensive rat (SHR), percent change in Systolic blood pressure (SBP) at 0.3 mg/kg peroral dose after 1 hr; format: functional; details: route oral

**Q.** Which results are given for `O=C1CCc2cc(/C=C/n3ccnc3)ccc2N1`?
**A.** Change in heart rate [1]: 10%; survival at 9 mg/kg [2]: 50%; survival at 3 mg/kg [3]: 20%; Change in heart rate [4]: 3%; Change in systolic BP [5]: -1%; Change in systolic BP [6]: -40%; Change in systolic BP [7]: -1%; IC50 [8]: 6.4 µM; inhibition in vivo at 50 mg/kg [9]: 94.7%; survival at 10 mg/kg [10]: 20%; Change in heart rate [11]: 29%; Change in systolic BP [12]: -8%; Change in heart rate [13]: 21%; Change in systolic BP [14]: -21%; Change in systolic BP [15]: -9%; survival at 30 mg/kg [16]: 20%; 6-keto-PGF1α level at 50 µM [17]: 11.5%; Ratio [18]: 4.7; inhibition in vivo at 50 mg/kg [19]: 96.5%; Change in heart rate [20]: 25%; Change in systolic BP [21]: -28%; survival at 10 mg/kg [22]: 90%; Change in systolic BP [23]: -19%; Change in systolic BP [24]: -5%; Change in heart rate [25]: 1%; Change in systolic BP [26]: -5%
